According to ChEMBL document CHEMBL1201862, “PubChem BioAssay data set” (2004):
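These data come from cells grown in 96-well plates and exposed to compound for 48 hours at five concentrations. GI50: concentration for 50% inhibition of growth.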 Active and inactive are the calls of the source. No stated cut-off is given here; in the data, active = GI50 up to about 1.1 µM and inactive = higher.

What was measured:
Experiment in all cases: NCI anticancer screen, dose series, 48 h
[1] = system: 786-0
[2] = system: A498
[3] = system: A549
[4] = system: ACHN
[5] = system: BT-549
[6] = system: CAKI-1
[7] = system: CCRF-CEM
[8] = system: DU-145
[9] = system: EKVX
[10] = system: HCT-116
[11] = system: HCT-15
[12] = system: HL-60
[13] = system: HOP-62
[14] = system: HOP-92
[15] = system: HT-29
[16] = system: Hs-578T
[17] = system: IGROV-1
[18] = system: K562
[19] = system: KM12
[20] = system: LOX IMVI
[21] = system: M14
[22] = system: MDA-MB-231
[23] = system: MDA-MB-435
[24] = system: MDA-N
[25] = system: MOLT-4
[26] = system: Malme-3M
[27] = system: NCI-H226
[28] = system: NCI-H23
[29] = system: NCI-H460
[30] = system: NCI-H522
[31] = system: NCI/ADR-RES
[32] = system: OVCAR-3
[33] = system: OVCAR-4
[34] = system: OVCAR-5
[35] = system: OVCAR-8
[36] = system: PC-3
[37] = system: RXF 393
[38] = system: SF-268
[39] = system: SF-295
[40] = system: SK-MEL-28
[41] = system: SK-MEL-2
[42] = system: SK-MEL-5
[43] = system: SN12C
[44] = system: SNB-19
[45] = system: SNB-75
[46] = system: SR
[47] = system: SW-620
[48] = system: TK-10
[49] = system: U-251
[50] = system: UACC-257
[51] = system: UACC-62
[52] = system: UO-31
[53] = system: COLO 205
[54] = system: HCC 2998
[55] = system: MCF7
[56] = system: RPMI-8226
[57] = system: SF-539
[58] = system: SK-OV-3
[59] = system: T47D

## O=C(O)CSCC(=O)O
[1]
  GI50: > 100 µM (inactive)
[2]
  GI50: > 100 µM (inactive)
[3]
  GI50: > 100 µM (inactive)
[4]
  GI50: > 100 µM (inactive)
[5]
  GI50: > 100 µM (inactive)
[6]
  GI50: > 100 µM (inactive)
[7]
  GI50: > 100 µM (inactive)
[8]
  GI50: > 100 µM (inactive)
[9]
  GI50: > 100 µM (inactive)
[10]
  GI50: > 100 µM (inactive)
[11]
  GI50: > 100 µM
[12]
  GI50: > 100 µM (inactive)
[13]
  GI50: > 100 µM (inactive)
[14]
  GI50: > 100 µM (inactive)
[15]
  GI50: > 100 µM (inactive)
[16]
  GI50: > 100 µM (inactive)
[17]
  GI50: > 100 µM (inactive)
[18]
  GI50: > 100 µM (inactive)
[19]
  GI50: > 100 µM (inactive)
[20]
  GI50: > 100 µM (inactive)
[21]
  GI50: > 100 µM (inactive)
[22]
  GI50: > 100 µM (inactive)
[23]
  GI50: > 100 µM (inactive)
[24]
  GI50: > 100 µM (inactive)
[25]
  GI50: > 100 µM (inactive)
[26]
  GI50: > 100 µM (inactive)
[27]
  GI50: > 100 µM (inactive)
[28]
  GI50: > 100 µM (inactive)
[29]
  GI50: > 100 µM (inactive)
[30]
  GI50: > 100 µM (inactive)
[31]
  GI50: > 100 µM (inactive)
[32]
  GI50: > 100 µM (inactive)
[33]
  GI50: > 100 µM (inactive)
[34]
  GI50: > 100 µM (inactive)
[35]
  GI50: > 100 µM (inactive)
[36]
  GI50: > 100 µM (inactive)
[37]
  GI50: > 100 µM (inactive)
[38]
  GI50: > 100 µM (inactive)
[39]
  GI50: > 100 µM (inactive)
[40]
  GI50: > 100 µM (inactive)
[41]
  GI50: > 100 µM (inactive)
[42]
  GI50: > 100 µM (inactive)
[43]
  GI50: > 100 µM (inactive)
[44]
  GI50: > 100 µM (inactive)
[45]
  GI50: > 100 µM (inactive)
[46]
  GI50: > 100 µM (inactive)
[47]
  GI50: > 100 µM (inactive)
[48]
  GI50: > 100 µM (inactive)
[49]
  GI50: > 100 µM (inactive)
[50]
  GI50: > 100 µM (inactive)
[51]
  GI50: > 100 µM (inactive)
[52]
  GI50: > 100 µM (inactive)

## O=S(=O)(c1ccc(-c2nnc(-c3ccc(F)cc3)o2)cc1)c1ccc(-c2nnc(-c3ccc(F)cc3)o2)cc1
[1]
  GI50: 26.8 µM (inactive)
[2]
  GI50: 25.5 µM (inactive)
[3]
  GI50: > 100 µM (inactive)
[4]
  GI50: 14.7 µM (inactive)
[5]
  GI50: 91 µM (inactive)
[6]
  GI50: > 100 µM (inactive)
[7]
  GI50: > 100 µM (inactive)
[53]
  GI50: > 100 µM (inactive)
[8]
  GI50: > 100 µM (inactive)
[9]
  GI50: > 100 µM (inactive)
[54]
  GI50: > 100 µM (inactive)
[10]
  GI50: > 100 µM (inactive)
[11]
  GI50: > 100 µM
[12]
  GI50: > 100 µM (inactive)
[13]
  GI50: 27 µM (inactive)
[14]
  GI50: 82.4 µM (inactive)
[15]
  GI50: > 100 µM (inactive)
[17]
  GI50: > 100 µM (inactive)
[18]
  GI50: > 100 µM (inactive)
[19]
  GI50: > 100 µM (inactive)
[20]
  GI50: > 100 µM (inactive)
[21]
  GI50: > 100 µM (inactive)
[55]
  GI50: > 100 µM (inactive)
[23]
  GI50: > 100 µM (inactive)
[24]
  GI50: > 100 µM (inactive)
[25]
  GI50: > 100 µM (inactive)
[26]
  GI50: > 100 µM (inactive)
[27]
  GI50: 61.5 µM (inactive)
[28]
  GI50: > 100 µM (inactive)
[29]
  GI50: > 100 µM (inactive)
[30]
  GI50: > 100 µM (inactive)
[31]
  GI50: > 100 µM (inactive)
[32]
  GI50: > 100 µM (inactive)
[33]
  GI50: > 100 µM (inactive)
[34]
  GI50: > 100 µM (inactive)
[35]
  GI50: > 100 µM (inactive)
[36]
  GI50: > 100 µM (inactive)
[56]
  GI50: > 100 µM (inactive)
[37]
  GI50: 22.2 µM (inactive)
[38]
  GI50: > 100 µM (inactive)
[39]
  GI50: 55.3 µM (inactive)
[57]
  GI50: 50.4 µM (inactive)
[41]
  GI50: > 100 µM (inactive)
[42]
  GI50: > 100 µM (inactive)
[58]
  GI50: 30.4 µM (inactive)
[43]
  GI50: > 100 µM (inactive)
[44]
  GI50: 34.6 µM (inactive)
[45]
  GI50: 11.1 µM (inactive)
[47]
  GI50: > 100 µM (inactive)
[59]
  GI50: > 100 µM (inactive)
[49]
  GI50: 21.7 µM (inactive)
[50]
  GI50: > 100 µM (inactive)
[51]
  GI50: > 100 µM (inactive)
[52]
  GI50: > 100 µM (inactive)

## CC1C(=O)N=C2C(=CN(Cc3ccccc3)c3ccccc32)C(=O)N1C (stereo not given)
[1]
  GI50: > 100 µM (inactive)
[2]
  GI50: > 100 µM (inactive)
[3]
  GI50: > 100 µM (inactive)
[4]
  GI50: > 100 µM (inactive)
[5]
  GI50: > 100 µM (inactive)
[6]
  GI50: > 100 µM (inactive)
[7]
  GI50: > 100 µM (inactive)
[53]
  GI50: > 100 µM (inactive)
[8]
  GI50: > 100 µM (inactive)
[54]
  GI50: > 100 µM (inactive)
[10]
  GI50: > 100 µM (inactive)
[11]
  GI50: > 100 µM
[14]
  GI50: > 100 µM (inactive)
[15]
  GI50: > 100 µM (inactive)
[17]
  GI50: > 100 µM (inactive)
[18]
  GI50: 1.44 µM (inactive)
[19]
  GI50: > 100 µM (inactive)
[21]
  GI50: > 100 µM (inactive)
[55]
  GI50: > 100 µM (inactive)
[22]
  GI50: > 100 µM (inactive)
[23]
  GI50: > 100 µM (inactive)
[24]
  GI50: > 100 µM (inactive)
[26]
  GI50: > 100 µM (inactive)
[27]
  GI50: > 100 µM (inactive)
[28]
  GI50: > 100 µM (inactive)
[29]
  GI50: > 100 µM (inactive)
[30]
  GI50: 29.1 µM (inactive)
[31]
  GI50: > 100 µM (inactive)
[32]
  GI50: > 100 µM (inactive)
[33]
  GI50: > 100 µM (inactive)
[34]
  GI50: > 100 µM (inactive)
[35]
  GI50: > 100 µM (inactive)
[36]
  GI50: > 100 µM (inactive)
[56]
  GI50: > 100 µM (inactive)
[37]
  GI50: > 100 µM (inactive)
[38]
  GI50: > 100 µM (inactive)
[57]
  GI50: > 100 µM (inactive)
[40]
  GI50: > 100 µM (inactive)
[41]
  GI50: > 100 µM (inactive)
[42]
  GI50: > 100 µM (inactive)
[43]
  GI50: > 100 µM (inactive)
[44]
  GI50: > 100 µM (inactive)
[45]
  GI50: > 100 µM (inactive)
[46]
  GI50: 4.26 µM (inactive)
[47]
  GI50: > 100 µM (inactive)
[59]
  GI50: > 100 µM (inactive)
[48]
  GI50: > 100 µM (inactive)
[49]
  GI50: > 100 µM (inactive)
[50]
  GI50: > 100 µM (inactive)
[51]
  GI50: > 100 µM (inactive)
[52]
  GI50: > 100 µM (inactive)

## CCN(CC)CC1CCCCN1CC(=O)N1c2ccccc2NC(=O)c2ccccc21 (stereo not given)
[1]
  GI50: > 100 µM (inactive)
[2]
  GI50: > 100 µM (inactive)
[3]
  GI50: > 100 µM (inactive)
[4]
  GI50: > 100 µM (inactive)
[6]
  GI50: > 100 µM (inactive)
[7]
  GI50: > 100 µM (inactive)
[53]
  GI50: > 100 µM (inactive)
[8]
  GI50: > 100 µM (inactive)
[9]
  GI50: > 100 µM (inactive)
[54]
  GI50: > 100 µM (inactive)
[10]
  GI50: > 100 µM (inactive)
[11]
  GI50: > 100 µM
[12]
  GI50: > 100 µM (inactive)
[13]
  GI50: > 100 µM (inactive)
[14]
  GI50: > 100 µM (inactive)
[15]
  GI50: > 100 µM (inactive)
[16]
  GI50: > 100 µM (inactive)
[17]
  GI50: > 100 µM (inactive)
[18]
  GI50: 79.3 µM (inactive)
[19]
  GI50: > 100 µM (inactive)
[20]
  GI50: > 100 µM (inactive)
[21]
  GI50: > 100 µM (inactive)
[55]
  GI50: > 100 µM (inactive)
[22]
  GI50: > 100 µM (inactive)
[23]
  GI50: > 100 µM (inactive)
[24]
  GI50: > 100 µM (inactive)
[25]
  GI50: > 100 µM (inactive)
[26]
  GI50: > 100 µM (inactive)
[27]
  GI50: > 100 µM (inactive)
[28]
  GI50: > 100 µM (inactive)
[29]
  GI50: > 100 µM (inactive)
[30]
  GI50: > 100 µM (inactive)
[31]
  GI50: > 100 µM (inactive)
[32]
  GI50: > 100 µM (inactive)
[33]
  GI50: > 100 µM (inactive)
[34]
  GI50: > 100 µM (inactive)
[35]
  GI50: > 100 µM (inactive)
[36]
  GI50: > 100 µM (inactive)
[56]
  GI50: > 100 µM (inactive)
[37]
  GI50: > 100 µM (inactive)
[38]
  GI50: > 100 µM (inactive)
[39]
  GI50: > 100 µM (inactive)
[57]
  GI50: > 100 µM (inactive)
[40]
  GI50: > 100 µM (inactive)
[41]
  GI50: > 100 µM (inactive)
[42]
  GI50: > 100 µM (inactive)
[58]
  GI50: > 100 µM (inactive)
[43]
  GI50: > 100 µM (inactive)
[44]
  GI50: > 100 µM (inactive)
[45]
  GI50: 13.9 µM (inactive)
[46]
  GI50: > 100 µM (inactive)
[47]
  GI50: > 100 µM (inactive)
[59]
  GI50: > 100 µM (inactive)
[48]
  GI50: > 100 µM (inactive)
[49]
  GI50: > 100 µM (inactive)
[50]
  GI50: > 100 µM (inactive)
[51]
  GI50: > 100 µM (inactive)
[52]
  GI50: 23.9 µM (inactive)
